Patent publication US20220304911A1, “ORAL CARE PRODUCT WITH CANNABINOID COMPOUNDS” (Demetrix, Inc., priority 2021, published 2022)
Converted amounts (≈) assume the structure as drawn. Where two headings read alike, the source gives them in different places.

System: Streptococcus mutans (S. mutans)
Test: minimum inhibitory concentration (MIC) assay against S. mutans
Assay type: cell-based
Protocol: As used herein “minimum inhibitory concentration” or “MIC” refers to the lowest concentration (in μg/mL) of an antibiotic that inhibits the growth of a given strain of bacteria.
To determine the ability of the cannabinoid compounds described herein to reduce, or eliminate, S. mutans, a minimum inhibitory concentration (“MIC”) assay was performed. The assay was performed by Charles River Discovery Research Services UK Limited (Portishead, United Kingdom) in accordance with industry standards.

[1] = Streptococcus mutans, read-out: minimum inhibitory concentration (MIC) against S. mutans
[2] = S. mutans, assay performed by Charles River Discovery Research Services UK Limited

Compound | MIC (Streptococcus mutans) | MIC [1] | MIC [2] | further results
CCCCCc1cc(O)c2c(c1)OC(C)(CCC=C(C)C)C=C2 (stereo not shown) [CBC, cannabichromene] | 25 µg/mL (≈ 79.5 µM) | < 25 µg/mL | – | –
CCCCCc1cc2c(c(O)c1C(=O)O)C=CC(C)(CCC=C(C)C)O2 (stereo not shown) [CBCA, cannabichromenic acid] | – | – | >200 µg/mL | –
C=C(C)[C@@H]1CCC(C)=C[C@H]1c1c(O)cc(CCCCC)cc1O [CBD, cannabidiol] | – | – | – | MIC (Streptococcus mutans, S. mutans, assay performed by Charles River Discovery Research Services UK Limited, read-out: MIC): 25 µg/mL (≈ 79.5 µM); MIC (Streptococcus mutans, S. mutans, summary statement in the description, read-out: minimum inhibitory concentration (MIC) against S. mutans): < 25 µg/mL
C=C(C)[C@@H]1CCC(C)=C[C@H]1c1c(O)cc(C)cc1O [CBD-C1] | – | – | 100 µg/mL (≈ 387 µM) | –
C=C(C)[C@@H]1CCC(C)=C[C@H]1c1c(O)cc(CC)cc1O [CBD-C2, cannabidiol ethyl] | – | – | 25 µg/mL (≈ 91.8 µM) | –
C=C(C)[C@@H]1CCC(C)=C[C@H]1c1c(O)cc(CCCC)cc1O [CBD-C4, cannabidibutol] | – | – | 25 µg/mL (≈ 83.2 µM) | –
C=C(C)[C@@H]1CCC(C)=C[C@H]1c1c(O)cc(CCCCC)c(C(=O)O)c1O [CBDA, cannabidiolic acid] | 25 µg/mL (≈ 69.7 µM) | < 25 µg/mL | – | –
C=C(C)[C@@H]1CCC(C)=C[C@H]1c1c(O)cc(CCC)cc1O [CBDV, cannabidivarin] | 25 µg/mL (≈ 87.3 µM) | < 25 µg/mL | – | –
C=C(C)[C@@H]1CCC(C)=C[C@H]1c1c(O)cc(CCC)c(C(=O)O)c1O [CBDVA, cannabidivarinic acid] | – | – | 25 µg/mL (≈ 75.7 µM) | –
CCCCCc1cc(O)c(C/C=C(\C)CCC=C(C)C)c(O)c1 [CBG, cannabigerol] | 25 µg/mL (≈ 79 µM) | < 25 µg/mL | – | –
CCCCc1cc(O)c(CC=C(C)CCC=C(C)C)c(O)c1 [CBG-C4, cannabigerol butyl] | – | – | 25 µg/mL (≈ 82.7 µM) | –
CCCCCc1cc(O)c(C/C=C(\C)CCC=C(C)C)c(O)c1C(=O)O [CBGA, cannabigerolic acid] | 25 µg/mL (≈ 69.3 µM) | < 25 µg/mL | – | –
CCCCc1cc(O)c(C/C=C(\C)CCC=C(C)C)c(O)c1C(=O)O [CBGA-C4, cannabigerolic acid butyl] | – | – | 12.5 µg/mL (≈ 36.1 µM) | –
CCCc1cc(O)c(C/C=C(\C)CCC=C(C)C)c(O)c1 [CBGV, cannabigerovarin] | – | – | 25 µg/mL (≈ 86.7 µM) | –
CCCc1cc(O)c(C/C=C(\C)CCC=C(C)C)c(O)c1C(=O)O [CBGVA, cannabigerovarinic acid] | – | – | >200 µg/mL | –
CCCCCc1cc(O)c2c(c1)OC1(C)CCC3C1C2C3(C)C (stereo not shown) [CBL, cannabicyclol] | > 200 µg/mL | > 25 µg/mL | – | –
CCCCCc1cc2c(c(O)c1C(=O)O)C1C3C(CCC3(C)O2)C1(C)C (stereo not shown) [CBLA, cannabicyclolic acid] | – | – | >200 µg/mL | –
CCCCCc1cc(O)c2c(c1)OC(C)(C)c1ccc(C)cc1-2 [CBN, cannabinol] | 50 µg/mL (≈ 161 µM) | > 25 µg/mL | – | –
CCCCCc1cc2c(c(O)c1C(=O)O)-c1cc(C)ccc1C(C)(C)O2 [CBNA, cannabinolic acid] | – | – | >200 µg/mL | –
(+)-cannabidiol [(+)-CBD] | – | – | 25 µg/mL | –
